Source: patent US4937245A, “Bisphenylalkylpiperazine derivatives, a method of their preparation and a pharmaceutical preparation” (priority 1987, dated 1990)

Tests used:
[1] = system: amphetamine-induced hypermotility in mice; test: Antagonism of amphetamine-induced hypermotility in mice (Test 1); assay type: in vivo; details: Mus musculus, sc, 1.5 h, test compound s.c., d-amphetamine 2 mg/kg i.p., locomotor activity 90 min, dose reducing motility to midpoint between amphetamine and saline controls
Protocol: Antagonism of amphetamine-induced hypermotility in mice
A low dose (2 mg/kg) of d-amphetamine administered to mice induced pronounced locomotor activity.
Female NMRI-mice, weighing about 25 g are divided into groups of 4 animals and placed in macrolon cages. The cages are placed on recording arenas in nine sound attenuated boxes with constant light and ventilation. After a familiarization period of 90 minutes the mice are brought up from the cages and treated in the following way; one control group receives saline i.p., one control group receives d-amphetamine sulphate, 2 mg/kg i.p. and test animals are treated s.c. with three different doses of the test compound and immediately thereafter with d-amphetamine 2 mg/kg i.p. Immediately after the administration the macrolon cages with the mice are put back into the test boxes and a computerized equipment records the locomotor activity in the cages for 90 minutes.
For each test compound 4 cages are treated with saline, 4 cages with only d-amphetamine and 6 cages/dose test compound+d-amphetamine. This is the total of three different experiments.
For each treatment group the mean number of counts during 90 minutes following the administration is calculated.
The ED50 -value (mg/kg) is calculated from the dose-response curve by means of linear regression. […]

[2] = molecular target: T1, D2-receptors (Rattus norvegicus, UniProt P61169); test: Affinity to D2-receptors, 3H-spiroperidol ligand (Test 2); assay type: binding; details: 3H-spiroperidol as ligand
T1 construct: from tissue; host or cells: brain membranes
Protocol: Affinity to D2 -receptors
The binding assay is carried out essentially as described by Leysen et al., (Mol. Pharmacol. 21, 301-14, 1982) using ^3 H-spiroperidol as ligand.

[3] = molecular target: T2, 5HT2-receptors (Rattus norvegicus, UniProt P14842); test: Affinity to 5HT2-receptors, 3H-ketanserine ligand (Test 3); assay type: binding; details: 3H-ketanserine as ligand
T2 construct: from tissue; host or cells: brain membranes
Protocol: Affinity to 5HT2 -receptors
The binding assay is carried out essentially as described by Leysen et al., (Mol. Pharmacol. 21, 301-14, 1982) using ^3 H-ketanserine as ligand.

[4] = system: 5-HT2 binding site; details: background statement on known drugs; cited from earlier work

T2 sequence (P14842 whole entry): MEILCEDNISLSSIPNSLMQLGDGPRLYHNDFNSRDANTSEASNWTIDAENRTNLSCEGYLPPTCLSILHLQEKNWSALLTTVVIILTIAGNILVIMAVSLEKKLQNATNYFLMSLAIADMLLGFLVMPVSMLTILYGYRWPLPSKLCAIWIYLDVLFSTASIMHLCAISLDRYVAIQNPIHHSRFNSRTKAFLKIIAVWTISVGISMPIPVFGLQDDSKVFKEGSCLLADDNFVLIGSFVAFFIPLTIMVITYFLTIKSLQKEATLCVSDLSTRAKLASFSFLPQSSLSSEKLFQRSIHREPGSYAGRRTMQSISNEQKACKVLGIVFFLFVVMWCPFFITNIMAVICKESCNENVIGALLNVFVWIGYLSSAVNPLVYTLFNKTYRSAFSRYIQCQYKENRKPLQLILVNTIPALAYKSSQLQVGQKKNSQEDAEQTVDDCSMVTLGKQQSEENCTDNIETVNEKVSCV
T1 sequence (P61169 whole entry): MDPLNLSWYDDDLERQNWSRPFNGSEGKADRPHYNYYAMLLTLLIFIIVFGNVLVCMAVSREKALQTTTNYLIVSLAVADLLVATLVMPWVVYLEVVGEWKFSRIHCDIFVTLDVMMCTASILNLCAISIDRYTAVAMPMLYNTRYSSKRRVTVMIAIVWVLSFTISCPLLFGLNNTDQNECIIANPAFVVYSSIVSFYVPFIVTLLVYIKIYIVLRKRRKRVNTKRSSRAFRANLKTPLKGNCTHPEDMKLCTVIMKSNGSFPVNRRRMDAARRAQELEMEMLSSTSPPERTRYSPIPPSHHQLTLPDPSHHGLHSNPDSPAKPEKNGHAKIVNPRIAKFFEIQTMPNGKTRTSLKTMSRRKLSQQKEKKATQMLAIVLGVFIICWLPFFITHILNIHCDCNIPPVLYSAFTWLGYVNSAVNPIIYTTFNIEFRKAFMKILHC

SMILES	ED50 [1]	Ki [2]	Ki [3]	5HT2 blocking potency / binding site preference [4]
NC(=O)c1cccnc1N1CCN(CCCC(c2ccc(F)cc2)c2ccc(F)cc2)CC1 [1:6, 4-[4,4-bis(p-fluorophenyl)butyl]-1-(3-carbamoyl-2-pyridyl)piperazine]	0.3 mg/kg	30 nM	2.1 nM	–
Cc1nc2sccn2c(=O)c1CCN1CCC(=C(c2ccc(F)cc2)c2ccc(F)cc2)CC1 [ritanserine]	–	–	–	labels preferentially the 5-HT2 binding site
Fc1ccc(C(CCCN2CCCN(c3ccccn3)CC2)c2ccc(F)cc2)cc1 [1:15, 4-[4,4-bis(p-fluorophenyl)butyl]-1-(2-pyridyl)-(1,4-diaza-cycloheptane)]	–	25 nM	1.3 nM	–
Fc1ccc(C(CCCN2CCN(c3ccccn3)CC2)c2ccc(F)cc2)cc1 [3:1, 4-[4,4-bis(p-fluorophenyl)butyl]-1-(2-pyridyl)-piperazine]	0.1 mg/kg	60 nM	5.8 nM	–
